From patent publication US20130072427A1, “GPR 119 MODULATORS” (Pfizer Inc., priority 2009, published 2013) come the findings set out here.

pEC50: −log10 of the molar value.

The target of this assay is T1, human GPR119 (Homo sapiens, UniProt Q8TDV5).
T1 construct: host or cells: HEK293-CRE beta-lactamase cells
T1 sequence (Q8TDV5 1-335): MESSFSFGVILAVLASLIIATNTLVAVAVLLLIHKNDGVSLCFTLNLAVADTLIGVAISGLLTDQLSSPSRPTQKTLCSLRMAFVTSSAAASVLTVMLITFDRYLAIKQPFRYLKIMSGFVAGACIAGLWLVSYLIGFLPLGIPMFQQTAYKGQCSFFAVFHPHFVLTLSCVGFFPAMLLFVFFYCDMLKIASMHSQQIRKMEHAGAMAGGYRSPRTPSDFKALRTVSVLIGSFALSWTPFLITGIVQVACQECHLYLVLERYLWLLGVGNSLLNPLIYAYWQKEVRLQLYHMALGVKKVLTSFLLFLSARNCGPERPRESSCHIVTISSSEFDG
Description: Beta-lactamase functional assay (hGPR119 HEK293-CRE beta-lactamase reporter). Format: cell-based. As to conditions: one line per run; for pEC50: hGPR119 HEK293-CRE beta-lactamase cells, 16 hours incubation, read-out: Human B-lactamase Functional EC50; for Emax: percent of maximal activity relative to standard GPR119 agonist (WO2005121121) at 10 microM, read-out: Intrinsic Activity* (%) (B-lactamase). As for the experimental part:
The assay for GPR119 agonists utilizes a cell-based (hGPR119 HEK293-CRE beta-lactamase) reporter construct where agonist activation of human GPR119 is coupled to beta-lactamase production via a cyclic AMP response element (CRE). GPR119 activity is then measured utilizing a FRET-enabled beta-lactamase substrate, CCF4-AM (Live Blazer FRET-B/G Loading kit, Invitrogen cat #K1027). Specifically, hGPR119-HEK-CRE-beta-lactamase cells (Invitrogen 2.5×10^7/mL) were removed from liquid nitrogen storage, and diluted in plating medium (Dulbecco's modified Eagle medium high glucose (DMEM; Gibco Cat #11995-065), 10% heat inactivated fetal bovine serum (HIFBS; Sigma Cat #F4135), 1×MEM Nonessential amino acids (Gibco Cat #15630-080), 25 mM HEPES pH 7.0 (Gibco Cat #15630-080), 200 nM potassium clavulanate (Sigma Cat #P3494). The cell concentration was adjusted using cell plating medium and 50 microL of this cell suspension ([…]) was added into each well of a black, clear bottom, poly-d-lysine coated 384-well plate (Greiner Bio-One cat #781946) and incubated at 37 degrees Celsius in a humidified environment containing 5% carbon dioxide. After 4 hours the plating medium was removed and replaced with 40 microL of assay medium (Assay medium is plating medium without potassium clavulanate and HIFBS). Varying concentrations of each compound to be tested was then added in a volume of 10 microL (final DMSO≦0.5%) and the cells were incubated for 16 hours at 37 degrees Celsius in a humidified environment containing 5% carbon dioxide. Plates were removed from the incubator and allowed to equilibrate to room temperature for approximately 15 minutes. 10 microL of 6×CCF4/AM working dye solution (prepared according to instructions in the Live Blazer FRET-B/G Loading kit, Invitrogen cat #K1027) was added per well and incubated at room temperature for 2 hours in the dark. Fluorescence was measured on an EnVision fluorimetric plate reader, excitation 405 nm, emission 460 nm/535 nm. EC50 determinations were made from agonist-response curves analyzed with a curve fitting program using a 4-parameter logistic dose-response equation.

As to `Cc1c(OC2CCN(C(=O)OC(C)C)CC2)ncnc1N1Cc2cnn(C)c2C1` [Example 2, Isopropyyl 4-{[5-methyl-6-(1-methyl-4,6-dihydropyrrolo[3,4-c]pyrazol-5(1H)-yl)pyrimidin-4-yl]oxy}piperidine-1-carboxylate], the pEC50 is 6.18 and the Emax was found to be 103%.
Consider `CC(C)OC(=O)N1CCC(Oc2ncnc(N3Cc4cnn(C)c4C3)c2C#N)CC1` [Example 3, Isopropyyl 4-{[5-cyano-6-(1-methyl-4,6-dihydropyrrolo[3,4-c]pyrazol-5(1H)-yl)pyrimidin-4-yl]oxy}piperidine-1-carboxylate], for which the pEC50 is 5.69 and the Emax was 107%.
